In PubChem BioAssay AID1996:
≈ marks a conversion by molar mass, not a printed value.

Conditions: buffer; pH 7.4; 200.0 µM

Row | Compound | solubility kinetic [µg/mL]
1 | CC(C(c1cccs1)c1c(N)n(C)c(=O)n(C)c1=O)[N+](=O)[O-] (stereo not drawn) | > 48.7
2 | NC(=O)c1cccc2ccccc12 | > 25.7
3 | COC(=O)c1ccccc1NCC(=O)c1ccc(OC)cc1 | 11.2 (≈ 37.4 µM)
4 | CC(C)n1c(O)c(C=NCc2cccnc2)c(=O)[nH]c1=S | > 45.7
5 | Cc1ccc(C(=O)N/C(=C\c2ccco2)C(=O)N2CCCCC2)cc1 | > 50.8
6 | CCCC(=O)Oc1ccc(C2NC(=O)c3ccccc3O2)cc1OC (stereo not drawn) | 3.9 (≈ 11.4 µM)
7 | CCOc1ccc(S(=O)(=O)N2CCN(C(=O)COc3ccc(Br)cc3)CC2)cc1 | 2.3 (≈ 4.76 µM)
8 | Cc1cc(NC(=O)Cn2c(=O)oc3ccccc32)no1 | 8.6 (≈ 31.5 µM)
9 | O=c1c2ccccc2ncn1-c1ccc([N+](=O)[O-])cc1Cl | 17 (≈ 56.3 µM)
10 | CS(=O)(=O)N1CCC(C(=O)NCc2ccc3c(c2)OCO3)CC1 | > 51.1
11 | Cc1ccc(C)c(NC(=O)CN(C)C(=O)CC2OC(=O)c3ccccc32)c1 (stereo not drawn) | > 55
12 | NC(=O)c1oc2ccccc2c1NC(=O)Cc1ccccc1 | 43.7 (≈ 148 µM)
13 | Fc1cccc(/C=C2\CCCC3=C2NC(=S)NC3c2cccc(F)c2)c1 (stereo not drawn) | 7 (≈ 19 µM)
14 | CC1CCC2C(C1)Nc1c(C(=O)O)cccc1C2(C)C (stereo not drawn) | > 41
15 | Brc1cccc(CNCC2CCCO2)c1 (stereo not drawn) | > 40.5
16 | O=C(/C=C/Sc1ccc(C(F)(F)F)cn1)c1ccccc1 | < 0.7
17 | O=C(COc1ccccc1)N1CCCCCCC1 | > 37.1
18 | O=C(O)c1ccccc1-c1ccccc1C(=O)Nc1ccc2c(c1)CCC2 | > 53.6
19 | N#CC1=C(N)Oc2cc(N)ccc2C1c1cccc(Br)c1 (stereo not drawn) | 3.5 (≈ 10.2 µM)
20 | COc1ccc2nc(NC(=O)c3ccc(F)cc3)sc2c1 | < 0.3
21 | O=C(NC1CCCC(C(F)(F)F)C1)c1ccc([N+](=O)[O-])o1 (stereo not drawn) | > 45.9
22 | Cc1ccc2oc(/N=C(\N)NC(=O)C(C)(C)C)nc2c1 | 1.2 (≈ 4.37 µM)
23 | O=c1cc(C(O)C[N+](=O)[O-])occ1OCc1ccccc1 (stereo not drawn) | 41.6 (≈ 143 µM)
24 | CCc1ccccc1NC(=O)c1ccc(S(=O)(=O)N2CCCC2)cc1 | 12.2 (≈ 34 µM)

Row | Compound | solubility kinetic [µg/mL]
25 | Cc1nc(-c2ccc(C(=O)Nc3cccc(F)c3)cc2)cs1 | < 0.3
26 | CC1(C)Cc2ccccc2C(NN=C2CCCC2)=N1 | > 38.3
27 | OC(CN1CCN(Cc2ccccc2)CC1)c1ccccc1 (stereo not drawn) | > 44.5
28 | Cc1ccc2oc(C(=O)NC3CCS(=O)(=O)C3)c(C)c2c1 (stereo not drawn) | 27.5 (≈ 89.5 µM)
29 | O=c1[nH]c(=S)n(Cc2ccc(F)cc2)c(O)c1C=NCc1ccc2c(c1)OCO2 | 0.4 (≈ 0.968 µM)
30 | O=C(/C=C/c1ccccc1F)N1CCN(c2ccccn2)CC1 | 35.8 (≈ 115 µM)
31 | CN(C)CCCn1c(=S)[nH]c2sc3c(c2c1=O)CCCC3 | > 48.5
32 | CCOC(=O)Cc1cc(=O)[nH]c(/N=C(\N)Nc2ccc(OC)cc2)n1 | 6.2 (≈ 18 µM)
33 | CC(=O)N1CCN(Cc2nc3ccc(Cl)cc3n2CCO)CC1 | > 50.5
34 | CC(=O)c1ccc(OCc2cc([N+](=O)[O-])cc3c2OCOC3)cc1 | 2.6 (≈ 7.9 µM)
35 | Cc1noc(C)c1C(=O)Nc1nc(-c2ccc(F)c(F)c2)cs1 | 4.8 (≈ 14.3 µM)
36 | CCOC(=O)CNc1nc(Cl)nc(Nc2ccc(Cl)cc2)n1 | < 0.1
37 | CCC(=NCCc1ccc(OC)c(OC)c1)C1=C(O)CC(C)(C)CC1=O | 47.3 (≈ 132 µM)
38 | N#C/C(=C\c1ccc(O)cc1)C(=O)NCc1ccccc1 | 2.4 (≈ 8.62 µM)
39 | COC(=O)/C=C1\SC(=NC(=O)c2ccc(-c3ccccc3)cc2)NC1=O | 2.6 (≈ 7.1 µM)
40 | Cc1ccc(S(=O)(=O)N[C@@H](Cc2ccccc2)C(=O)CCl)cc1 | > 52.8
41 | O=C(/C=C/c1cccnc1)c1cc(F)ccc1O | 19.8 (≈ 81.4 µM)
42 | O=C(Nc1ccccc1N1CCOCC1)c1ccc2c(c1)OCO2 | 4.7 (≈ 14.4 µM)
43 | C#CCOC(=O)Nc1cc(C)n(-c2ccccc2)n1 | > 38.3
44 | CC1C(=O)C(C)C(c2ccc(Cl)cc2)NC1c1ccc(Cl)cc1.Cl (stereo not drawn) | < 0.8
45 | Cc1ccc(C(=O)C(C)[n+]2cccc(C(N)=O)c2)cc1.[Br-] (stereo not drawn) | > 52.4
46 | CCNC(=O)C12CCC(C)(C(=O)O1)C2(C)C (stereo not drawn) | 31.8 (≈ 141 µM)
47 | COC(=O)c1[nH]c2c(c1C(=O)OC)CCc1ccccc1-2 | 19.4 (≈ 68 µM)
48 | O=C(CS(=O)(=O)c1ccccc1)NC1CCCCC1 | > 42.2

Row | Compound | solubility kinetic [µg/mL]
49 | CC(=O)N1CCN(S(=O)(=O)c2cccc(C(=O)NCc3ccc(F)cc3)c2)CC1 | > 62.9
50 | Cc1[nH]c2ccc(C(=O)N3CCN(Cc4ccccc4)CC3)cc2c1C | > 52.1
51 | COCCOC(=O)C1=C(C)NC(=O)NC1c1cccc2ccccc12 (stereo not drawn) | 48.8 (≈ 143 µM)
52 | Cc1ccc(S(=O)(=O)N2CCOCC2)cc1NC(=O)COC(=O)c1cncc(Br)c1 | > 74.8
53 | O=C(CNC(=O)C1CCCCC1)NC1CCCCC1 | > 40
54 | O=C(CCC(=O)N1CCN(c2ccccc2F)CC1)c1ccc(Cl)s1 | 19.5 (≈ 51.2 µM)
55 | FC(F)(F)c1nc2ccccc2[nH]1 | > 27.9
56 | O=C(Nc1cc2c3c(c1)CC(=O)N3CCC2)c1ccccc1F | 46.4 (≈ 150 µM)
57 | COc1cc(C(=O)Nc2ccc(C(=O)c3cccs3)cc2)cc(OC)c1OC | 8.2 (≈ 20.6 µM)
58 | Cc1sc(NC(=O)C2=COCCO2)c(C#N)c1C | 5.9 (≈ 22.3 µM)
59 | CCOc1ccc(Cl)cc1/C=C1/C(=O)ON=C1C | 29.3 (≈ 110 µM)
60 | CCOC(=O)NC(C(Cl)(Cl)Cl)S(=O)(=O)c1ccccc1 (stereo not drawn) | > 54.1
61 | N/C(CN1CCSCC1)=N\OCc1c(F)cccc1Cl | 40.4 (≈ 127 µM)
62 | CNn1cnc2ccsc2c1=O | > 27.2
63 | COc1cccc(/C=C/c2ccccn2)c1O | 34 (≈ 150 µM)
64 | NCCSc1c(-c2ccc(Cl)cc2)[nH]c2ccccc12 | > 45.4
65 | CC(NC(=O)CNC(=O)c1cccc(Cl)c1)c1ccccc1 (stereo not drawn) | 43.7 (≈ 138 µM)
66 | Cn1cnc2c(=O)sc3ccccc3c21 | > 32.4
67 | COc1ccc(NC2(c3ccccc3)OC(=O)c3ccccc32)cc1 (stereo not drawn) | 1.5 (≈ 4.53 µM)
68 | COc1ccccc1C1CCN(C(=O)c2ccc(Cl)cc2)CC1 | 17 (≈ 51.5 µM)
69 | Cc1cc(NC(=O)c2ccccc2C)no1 | > 32.4
70 | O=C(c1cccc([N+](=O)[O-])c1)N1CCN(C/C=C/c2ccccc2)CC1 | 52 (≈ 148 µM)
71 | CC(C)C(NC(=O)c1ccc([N+](=O)[O-])cc1Cl)C(=O)N1CCCC1 (stereo not drawn) | > 53.1
72 | CC(=O)N(C)c1ccc(C(O)(C(F)(F)F)C(F)(F)F)cc1 | > 47.3

Row | Compound | solubility kinetic [µg/mL]
73 | CCC(C)N(C(=O)CSc1nncn1C)C1CCS(=O)(=O)C1 (stereo not drawn) | > 52
74 | CCn1c(SCC(=O)NC2CCCCC2)nnc1-c1ccccc1F | > 54.4
75 | COc1ccc(S(=O)(=O)NCCCn2ccnc2)cc1Cl | > 49.5
76 | O=C1CSC(c2cccc([N+](=O)[O-])c2)N1C1CC2CCC1C2 (stereo not drawn) | 11.2 (≈ 35.2 µM)
77 | Cc1ccc(NC(=O)N2CCN(C(=O)C3CCCO3)CC2)cc1 (stereo not drawn) | > 47.6
78 | Cc1ccc(S(=O)(=O)Nc2cccnc2)c(C)c1C | 9.1 (≈ 32.9 µM)
79 | Nc1ccccc1SC/C=C/CSc1ccccc1N | 12.8 (≈ 42.3 µM)
80 | O=C(COc1cc(Cl)ccc1Cl)N1CCNC1=O | > 43.4
81 | COc1ccccc1/C=C1\SC(N2CCC(C)CC2)=NC1=O | 35 (≈ 111 µM)
82 | CCc1ccccc1NC(=S)N(CCOC)C(C)c1ccco1 (stereo not drawn) | 35.1 (≈ 106 µM)
83 | Br.CC1CN2C(c3ccc(Cl)cc3)=CSC2=N1 (stereo not drawn) | > 49.7
84 | CC(=O)Nc1ccc(S(=O)(=O)N[C@@H](C)C(=O)OCC(=O)c2ccc[nH]2)cc1 | 42.2 (≈ 107 µM)
85 | O=C(CSCc1ccccc1Cl)Nc1ccc(C(=O)O)cc1 | > 50.4
86 | COc1ccc(C(=O)/C=C/NCc2ccc(F)cc2)cc1OC | > 47.3
87 | O=C(c1ccc([N+](=O)[O-])s1)N1CCN(c2ccccn2)CC1 | 42.7 (≈ 134 µM)
88 | CCN(CC)S(=O)(=O)c1ccc(=O)[nH]c1 | > 34.5
89 | CCCC(C(=O)OCCN(CC)CC)(c1ccccc1)c1ccccc1.Cl | 47.4
90 | N#CC(CC(=O)c1ccc(F)cc1)c1ccc2c(c1)OCO2 (stereo not drawn) | 1.2 (≈ 4.04 µM)
91 | CCc1nc(NC(=O)Cc2csc(C)n2)sc1C(=O)OC | > 48.8
92 | Cn1ncc([N+](=O)[O-])c1C(=O)N1CCCCCC1 | > 37.8
93 | O=C(OCC(=O)N1CCc2ccccc2C1)c1c(F)cccc1Cl | 31.8 (≈ 91.4 µM)
94 | O=C(Cc1ccc(O)cc1)NCCNC(=S)NCc1ccccc1 | 50.3 (≈ 146 µM)
95 | COc1cc(/C=C/C(=O)OCC(=O)NC(=O)C2COc3ccccc3O2)ccc1OC(F)F (stereo not drawn) | 15.4 (≈ 33.2 µM)
96 | Fc1ccccc1N1CCN(c2ncnc3nc[nH]c23)CC1 | 1.3 (≈ 4.36 µM)

Row | Compound | solubility kinetic [µg/mL]
97 | O=C(Nc1nc2ccc(F)cc2s1)c1cccs1 | 1.1 (≈ 3.95 µM)
98 | CC1CCCC(NC(=O)Cn2cc([N+](=O)[O-])ccc2=O)C1C (stereo not drawn) | 44 (≈ 143 µM)
99 | CC(C)Oc1ccc(C(=O)NCCNC(=O)c2ccco2)cc1 | > 47.5
100 | CC(=O)c1cccc(NC(=O)C2CC(=O)N(C3CCCC3)C2)c1 (stereo not drawn) | > 47.2
101 | O=C(NCc1csc2ccccc12)Nc1cc(Cl)cc(Cl)c1 | 2.1 (≈ 5.98 µM)
102 | Cc1ccc(C(=O)C2=C(O)C(=O)N(c3ncccn3)C2c2ccc(F)cc2)o1 (stereo not drawn) | > 56.9
103 | O=C(c1ccc(F)cc1)C(Cc1ccccc1)N1CCCCC1 (stereo not drawn) | 13.1 (≈ 42.1 µM)
104 | COC(=O)CSc1nc2ccccc2c(=O)n1Cc1ccccc1 | 0.7 (≈ 2.06 µM)
105 | CCOc1ccc2nc(NS(=O)(=O)c3cccs3)sc2c1 | 9.9 (≈ 29.1 µM)
106 | CC(=O)Nc1c2c(nn1-c1ccccc1C)CS(=O)C2 (stereo not drawn) | > 43.4
107 | CCOc1ccc(C(C)=O)cc1COc1cccnc1[N+](=O)[O-] | 6 (≈ 19 µM)
108 | Cc1cccc(OCC(=O)Nc2nccs2)c1C | 5.1 (≈ 19.4 µM)
109 | CCN1C=C(C(=O)OC)C(c2cccc(OC)c2OC)C(C(=O)OC)=C1 | 8.4 (≈ 23.2 µM)
110 | Cc1cc(O)c(NC(=O)c2cccc([N+](=O)[O-])c2)cc1C | < 0.3
111 | Cc1cccc(-c2noc(CNC(=O)COc3ccccc3C)n2)c1 | 1.2 (≈ 3.56 µM)
112 | CC(C(=O)Nc1ccccn1)c1ccccc1 (stereo not drawn) | > 33.9
113 | CCc1nc2sc3c(c2c(=S)[nH]1)CC(C)(C)OC3 | 1.9 (≈ 6.78 µM)
114 | O=C(COc1ccc(Cl)cc1)NC1CC1 | > 33.9
115 | Cn1c(-c2ccccc2)nc2cnccc21 | > 31.4
116 | CCOC(=O)c1cc(C)nc(SC)c1C#N | 16.9 (≈ 71.5 µM)
117 | COc1cc2[nH]c(C(=O)NCC3CCCO3)cc2c(OC)c1OC (stereo not drawn) | > 50.2
118 | S=C(NCCc1ccccc1)N1CCOCC1 | > 37.6
